Measurements reported in ChEMBL document CHEMBL1201861, “Genomics of Drug Sensitity in Cancer screening data, Wellcome Trust Sanger Institute”.

Tests used:
Test in all cases: cells
[1] = system: GCT; format: functional, cell-based, Homo sapiens; conditions: Homo sapiens, GCT;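 note: GCT cell line proliferation inhibition, read out with a cell viability assay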
Description: SANGER: Inhibition of human GCT cell growth in a cell viability assay.

[2] = system: A4-Fuk; format: functional, cell-based; conditions: Homo sapiens;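 note: growth inhibition of A4-Fuk cells, read out by a cell viability assay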
Description: SANGER: Inhibition of human A4-Fuk cell growth in a cell viability assay.

[3] = system: MDA-MB-453; format: functional, cell-based, Homo sapiens; conditions: Homo sapiens, MDA-MB-453
[4] = system: ME-180; format: functional, cell-based; conditions: Homo sapiens;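 note: cell viability assay measuring growth inhibition of ME-180 cells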
Description: SANGER: Inhibition of human ME-180 cell growth in a cell viability assay.

[5] = system: GT3TKB; format: functional, cell-based, Homo sapiens; conditions: Homo sapiens, GT3TKB;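 note: growth inhibition of the cell line, read out with a cell viability assay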
Description: SANGER: Inhibition of human GT3TKB cell growth in a cell viability assay.

[6] = system: BPH-1; format: functional, cell-based, Homo sapiens; conditions: Homo sapiens, BPH-1;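 note: cell viability assay measuring growth inhibition of human BPH-1 cells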
Description: SANGER: Inhibition of human BPH-1 cell growth in a cell viability assay.

[7] = system: MS-1; format: functional, cell-based; conditions: Homo sapiens;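 note: growth inhibition of MS-1 cells, read out by cell viability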
Description: SANGER: Inhibition of human MS-1 cell growth in a cell viability assay.

[8] = system: M14; format: functional, cell-based, Homo sapiens; conditions: Homo sapiens, M14;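 note: growth inhibition of M14 cells, read out with a cell viability assay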
Description: SANGER: Inhibition of human M14 cell growth in a cell viability assay.

[9] = system: A101D; format: functional, cell-based, Homo sapiens; conditions: Homo sapiens, A101D;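 note: growth inhibition of the cell line, measured with a viability assay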
Description: SANGER: Inhibition of human A101D cell growth in a cell viability assay.

[10] = system: NCI-H2122; format: functional, cell-based, Homo sapiens; conditions: Homo sapiens, NCI-H2122;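 note: growth inhibition of the cells, read out with a cell viability assay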
Description: SANGER: Inhibition of human NCI-H2122 cell growth in a cell viability assay.

[11] = system: MHH-ES-1; format: functional, cell-based, Homo sapiens; conditions: Homo sapiens, MHH-ES-1;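 note: cell growth inhibition measured by a cell viability assay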
Description: SANGER: Inhibition of human MHH-ES-1 cell growth in a cell viability assay.

[12] = system: IST-MEL1; format: functional, cell-based, Homo sapiens; conditions: Homo sapiens, IST-MEL1;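 note: growth inhibition of the cell line, read out with a cell viability assay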
Description: SANGER: Inhibition of human IST-MEL1 cell growth in a cell viability assay.

[13] = system: KOSC-2; format: functional, cell-based, Homo sapiens; conditions: Homo sapiens, KOSC-2;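 note: growth inhibition of KOSC-2 cells, read out by a cell viability assay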
[14] = system: NB17; format: functional, cell-based; conditions: Homo sapiens;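 note: growth inhibition of NB17 cells, read out with a cell viability assay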
Description: SANGER: Inhibition of human NB17 cell growth in a cell viability assay.

[15] = system: SBC-1; format: functional, cell-based; conditions: Homo sapiens;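 note: cell viability assay measuring growth inhibition of the SBC-1 cell line, IC50 being the concentration that halves growth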
Description: SANGER: Inhibition of human SBC-1 cell growth in a cell viability assay.

[16] = system: A498; format: functional, cell-based, Homo sapiens; conditions: Homo sapiens, A498;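 note: growth inhibition of human A498 cells, read out with a cell viability assay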
Description: SANGER: Inhibition of human A498 cell growth in a cell viability assay.

[17] = system: TE-11; format: functional, cell-based, Homo sapiens; conditions: Homo sapiens, TE-11;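 note: growth inhibition of human TE-11 cells, read out by a cell viability assay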
Description: SANGER: Inhibition of human TE-11 cell growth in a cell viability assay.

[18] = system: SK-OV-3; format: functional, cell-based, Homo sapiens; conditions: Homo sapiens, SK-OV-3;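 note: growth inhibition of SK-OV-3 human cells, read out with a cell viability assay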
Description: SANGER: Inhibition of human SK-OV-3 cell growth in a cell viability assay.

[19] = system: IST-SL1; format: functional, cell-based, Homo sapiens; conditions: Homo sapiens, IST-SL1;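 note: growth inhibition of human IST-SL1 cells, read out with a cell viability assay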
Description: SANGER: Inhibition of human IST-SL1 cell growth in a cell viability assay.

[20] = system: MMAC-SF; format: functional, cell-based, Homo sapiens; conditions: Homo sapiens, MMAC-SF;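 note: growth inhibition of human MMAC-SF cells, read out with a cell viability assay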
Description: SANGER: Inhibition of human MMAC-SF cell growth in a cell viability assay.

[21] = system: FaDu; format: functional, cell-based, Homo sapiens; conditions: Homo sapiens, FaDu;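 note: cell viability readout of growth inhibition in FaDu cells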
Description: SANGER: Inhibition of human FADU cell growth in a cell viability assay.

[22] = system: NUGC-3; format: functional, cell-based, Homo sapiens; conditions: Homo sapiens, NUGC-3;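 note: growth inhibition of human NUGC-3 cells, read out with a cell viability assay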
Description: SANGER: Inhibition of human NUGC-3 cell growth in a cell viability assay.

[23] = system: BHY; format: functional, cell-based, Homo sapiens; conditions: Homo sapiens, BHY;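 note: cell growth inhibition read out by a viability assay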
Description: SANGER: Inhibition of human BHY cell growth in a cell viability assay.

[24] = system: MFM-223; format: functional, cell-based, Homo sapiens; conditions: Homo sapiens, MFM-223
Description: SANGER: Inhibition of human MFM-223 cell growth in a cell viability assay.

[25] = system: SAS; format: functional, cell-based, Homo sapiens; conditions: Homo sapiens, SAS;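 note: growth inhibition of SAS cells, read out with a cell viability assay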
Description: SANGER: Inhibition of human SAS cell growth in a cell viability assay.

[26] = system: SK-UT-1; format: functional, cell-based, Homo sapiens; conditions: Homo sapiens, SK-UT-1;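 note: growth inhibition of SK-UT-1 cells, measured by a cell viability assay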
Description: SANGER: Inhibition of human SK-UT-1 cell growth in a cell viability assay.

[27] = system: D-502MG; format: functional, cell-based, Homo sapiens; conditions: Homo sapiens, D-502MG
Description: SANGER: Inhibition of human D-502MG cell growth in a cell viability assay.

[28] = system: DMS-273; format: functional, cell-based, Homo sapiens; conditions: Homo sapiens, DMS-273
Description: SANGER: Inhibition of human DMS-273 cell growth in a cell viability assay.

[29] = system: RS4-11; format: functional, cell-based; conditions: Homo sapiens;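 note: growth inhibition of RS4-11 cells, read out by a cell viability assay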
Description: SANGER: Inhibition of human RS4-11 cell growth in a cell viability assay.

[30] = system: RMG-I; format: functional, cell-based, Homo sapiens; conditions: Homo sapiens, RMG-I;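 note: growth inhibition of human RMG-I cells, read out with a cell viability assay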
Description: SANGER: Inhibition of human RMG-I cell growth in a cell viability assay.

[31] = system: CaR-1; format: functional, cell-based, Homo sapiens; conditions: Homo sapiens, CaR-1;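 note: growth inhibition of human CaR-1 cancer cells, read out with a cell viability assay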
Description: SANGER: Inhibition of human CaR-1 cell growth in a cell viability assay.

[32] = system: P12-Ichikawa; format: functional, cell-based; conditions: Homo sapiens
[33] = system: COR-L23; format: functional, cell-based, Homo sapiens; conditions: Homo sapiens, COR-L23;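 note: cell viability assay measuring how strongly compounds suppress growth of COR-L23 cells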
Description: SANGER: Inhibition of human COR-L23 cell growth in a cell viability assay.

[34] = system: DEL; format: functional, cell-based; conditions: Homo sapiens;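 note: growth inhibition of the human DEL cell line, read out with a cell viability assay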
Description: SANGER: Inhibition of human DEL cell growth in a cell viability assay.

[35] = system: UACC-62; format: functional, cell-based, Homo sapiens; conditions: Homo sapiens, UACC-62;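 note: growth inhibition of human UACC-62 cells, read out by a cell viability assay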
Description: SANGER: Inhibition of human UACC-62 cell growth in a cell viability assay.

[36] = system: VA-ES-BJ; format: functional, cell-based, Homo sapiens; conditions: Homo sapiens, VA-ES-BJ;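 note: growth inhibition of the VA-ES-BJ cell line, read out by a cell viability assay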
Description: SANGER: Inhibition of human VA-ES-BJ cell growth in a cell viability assay.

[37] = system: Huh-7; format: functional, cell-based, Homo sapiens; conditions: Homo sapiens, Huh-7;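 note: HuH-7 cell growth inhibition, read out with a cell viability assay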
Description: SANGER: Inhibition of human HuH-7 cell growth in a cell viability assay.

[38] = system: SW756; format: functional, cell-based, Homo sapiens; conditions: Homo sapiens, SW756;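 note: growth inhibition of human SW756 cells, read out with a cell viability assay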
Description: SANGER: Inhibition of human SW756 cell growth in a cell viability assay.

[39] = system: NCI-H1304; format: functional, cell-based; conditions: Homo sapiens;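 note: growth inhibition of the cancer cell line, measured in a cell viability assay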
Description: SANGER: Inhibition of human NCI-H1304 cell growth in a cell viability assay.

[40] = system: NCI-H1355; format: functional, cell-based, Homo sapiens; conditions: Homo sapiens, NCI-H1355;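 note: growth inhibition of human NCI-H1355 cells, read out by a cell viability assay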
Description: SANGER: Inhibition of human NCI-H1355 cell growth in a cell viability assay.

[41] = system: SAOS-2; format: functional, cell-based, Homo sapiens; conditions: Homo sapiens, SAOS-2;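 note: growth inhibition of human Saos-2 cells determined by a cell viability assay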
Description: SANGER: Inhibition of human Saos-2 cell growth in a cell viability assay.

[42] = system: CAKI-1; format: functional, cell-based, Homo sapiens; conditions: Homo sapiens, CAKI-1;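 note: growth inhibition of CAKI-1 cells, measured by a cell viability assay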
Description: SANGER: Inhibition of human CAKI-1 cell growth in a cell viability assay.

[43] = system: BCPAP; format: functional, cell-based, Homo sapiens; conditions: Homo sapiens, BCPAP;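 note: growth inhibition of BCPAP cells, read out in a cell viability assay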
Description: SANGER: Inhibition of human BCPAP cell growth in a cell viability assay.

[44] = system: KALS-1; format: functional, cell-based, Homo sapiens; conditions: Homo sapiens, KALS-1;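 note: growth inhibition of KALS-1 cells, determined with a cell viability assay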
[45] = system: RPMI-8866; format: functional, cell-based; conditions: Homo sapiens
Description: SANGER: Inhibition of human RPMI-8866 cell growth in a cell viability assay.

[46] = system: HCC1806; format: functional, cell-based, Homo sapiens; conditions: Homo sapiens, HCC1806;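 note: growth inhibition of the cancer cell line, determined with a cell viability assay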
Description: SANGER: Inhibition of human HCC1806 cell growth in a cell viability assay.

[47] = system: RO82-W-1; format: functional, cell-based, Homo sapiens; conditions: Homo sapiens, RO82-W-1;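 note: growth inhibition of human RO82-W-1 cells, measured with a cell viability assay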
Description: SANGER: Inhibition of human RO82-W-1 cell growth in a cell viability assay.

[48] = system: OAW-28; format: functional, cell-based, Homo sapiens; conditions: Homo sapiens, OAW-28;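 note: growth inhibition of OAW-28 cells, read out with a cell viability assay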
Description: SANGER: Inhibition of human OAW-28 cell growth in a cell viability assay.

[49] = system: KYSE-180; format: functional, cell-based, Homo sapiens; conditions: Homo sapiens, KYSE-180;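 note: growth inhibition of KYSE-180 cells, read out with a cell viability assay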
Description: SANGER: Inhibition of human KYSE-180 cell growth in a cell viability assay.

[50] = system: EW-1; format: functional, cell-based, Homo sapiens; conditions: Homo sapiens, EW-1;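 note: growth inhibition of the human EW-1 cell line, read out by a cell viability assay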
Description: SANGER: Inhibition of human EW-1 cell growth in a cell viability assay.

[51] = system: HCC1954; format: functional, cell-based, Homo sapiens; conditions: Homo sapiens, HCC1954;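 note: growth inhibition of human HCC1954 cells, read out with a cell viability assay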
Description: SANGER: Inhibition of human HCC1954 cell growth in a cell viability assay.

O=C(NOCC1CC1)c1ccc(F)c(F)c1Nc1ccc(I)cc1Cl [CI-1040]
IC50 [1]: > 10 µM | IC50 [2]: 1.57 µM | IC50 [3]: > 10 µM | IC50 [4]: 5.58 µM | IC50 [5]: 5.47 µM | IC50 [6]: 1.9 µM | IC50 [7]: 8.88 µM | IC50 [8]: 0.155 µM | IC50 [9]: 0.214 µM | IC50 [10]: 6.62 µM | IC50 [11]: > 10 µM | IC50 [12]: 8 µM | IC50 [13]: > 10 µM | IC50 [14]: > 10 µM | IC50 [15]: 8.87 µM | IC50 [16]: > 10 µM | IC50 [17]: > 10 µM | IC50 [18]: > 10 µM | IC50 [19]: > 10 µM | IC50 [20]: 0.11 µM | IC50 [21]: 5.56 µM | IC50 [22]: 5.49 µM | IC50 [23]: > 10 µM | IC50 [24]: > 10 µM | IC50 [25]: > 10 µM | IC50 [26]: 8.98 µM | IC50 [27]: > 10 µM | IC50 [28]: > 10 µM | IC50 [29]: 5.67 µM | IC50 [30]: > 10 µM | IC50 [31]: > 10 µM | IC50 [32]: 0.612 µM | IC50 [33]: 7.24 µM | IC50 [34]: > 10 µM | IC50 [35]: > 10 µM | IC50 [36]: > 10 µM | IC50 [37]: 5.27 µM | IC50 [38]: > 10 µM | IC50 [39]: 6.2 µM | IC50 [40]: 7.59 µM | IC50 [41]: > 10 µM | IC50 [42]: 8.57 µM | IC50 [43]: 5.33 µM | IC50 [44]: > 10 µM | IC50 [45]: 6.21 µM | IC50 [46]: > 10 µM | IC50 [47]: > 10 µM | IC50 [48]: > 10 µM | IC50 [49]: > 10 µM | IC50 [50]: > 10 µM | IC50 [51]: > 10 µM

CN(C)C/C=C/C(=O)Nc1cc2c(Nc3ccc(F)c(Cl)c3)ncnc2cc1O[C@H]1CCOC1 [AFATINIB]
IC50 [1]: > 0.5 µM | IC50 [2]: > 0.5 µM | IC50 [3]: > 0.5 µM | IC50 [4]: > 0.5 µM | IC50 [5]: > 0.5 µM | IC50 [6]: 0.0599 µM | IC50 [7]: > 0.5 µM | IC50 [8]: > 0.5 µM | IC50 [9]: > 0.5 µM | IC50 [10]: > 0.5 µM | IC50 [11]: > 0.5 µM | IC50 [12]: > 0.5 µM | IC50 [13]: > 0.5 µM | IC50 [14]: > 0.5 µM | IC50 [15]: 0.19 µM | IC50 [16]: 0.407 µM | IC50 [17]: > 0.5 µM | IC50 [18]: > 0.5 µM | IC50 [19]: > 0.5 µM | IC50 [20]: > 0.5 µM | IC50 [21]: > 0.5 µM | IC50 [22]: 0.384 µM | IC50 [23]: 0.287 µM | IC50 [24]: > 0.5 µM | IC50 [25]: 0.484 µM | IC50 [26]: > 0.5 µM | IC50 [27]: > 0.5 µM | IC50 [28]: > 0.5 µM | IC50 [29]: > 0.5 µM | IC50 [30]: > 0.5 µM | IC50 [31]: > 0.5 µM | IC50 [32]: > 0.5 µM | IC50 [33]: > 0.5 µM | IC50 [34]: > 0.5 µM | IC50 [35]: > 0.5 µM | IC50 [36]: > 0.5 µM | IC50 [37]: > 0.5 µM | IC50 [38]: > 0.5 µM | IC50 [39]: > 0.5 µM | IC50 [40]: > 0.5 µM | IC50 [41]: > 0.5 µM | IC50 [42]: > 0.5 µM | IC50 [43]: > 0.5 µM | IC50 [44]: > 0.5 µM | IC50 [45]: > 0.5 µM | IC50 [46]: > 0.5 µM | IC50 [47]: > 0.5 µM | IC50 [48]: > 0.5 µM | IC50 [49]: 0.391 µM | IC50 [50]: > 0.5 µM | IC50 [51]: > 0.5 µM

CCOc1nc(NC(=O)Cc2cc(OC)ccc2OC)cc(N)c1C#N
IC50 [1]: > 10 µM | IC50 [2]: > 10 µM | IC50 [3]: > 10 µM | IC50 [4]: > 10 µM | IC50 [5]: > 10 µM | IC50 [6]: > 10 µM | IC50 [7]: > 10 µM | IC50 [8]: > 10 µM | IC50 [9]: > 10 µM | IC50 [10]: > 10 µM | IC50 [11]: > 10 µM | IC50 [12]: > 10 µM | IC50 [13]: > 10 µM | IC50 [14]: > 10 µM | IC50 [15]: > 10 µM | IC50 [16]: > 10 µM | IC50 [17]: > 10 µM | IC50 [18]: > 10 µM | IC50 [19]: > 10 µM | IC50 [20]: > 10 µM | IC50 [21]: > 10 µM | IC50 [22]: > 10 µM | IC50 [23]: > 10 µM | IC50 [24]: > 10 µM | IC50 [25]: > 10 µM | IC50 [26]: > 10 µM | IC50 [27]: > 10 µM | IC50 [28]: > 10 µM | IC50 [29]: > 10 µM | IC50 [30]: > 10 µM | IC50 [31]: > 10 µM | IC50 [32]: > 10 µM | IC50 [33]: > 10 µM | IC50 [34]: > 10 µM | IC50 [35]: > 10 µM | IC50 [36]: > 10 µM | IC50 [37]: > 10 µM | IC50 [38]: > 10 µM | IC50 [39]: > 10 µM | IC50 [40]: > 10 µM | IC50 [41]: > 10 µM | IC50 [42]: > 10 µM | IC50 [43]: > 10 µM | IC50 [44]: > 10 µM | IC50 [45]: > 10 µM | IC50 [46]: > 10 µM | IC50 [47]: > 10 µM | IC50 [48]: > 10 µM | IC50 [49]: > 10 µM | IC50 [50]: > 10 µM | IC50 [51]: > 10 µM
